In brackets after ≈: the same amount, converted by molar mass. Like-named read-outs stand apart in the source and are kept apart here.
Experiments:
Plasmodium falciparum K1 = test: Growth inhibition of Plasmodium falciparum K1 (chloroquine-resistant) in vitro, [G-3H]-hypoxanthin incorporation; assay type: cell-based, Plasmodium falciparum (strain K1); settings: for IC50: Plasmodium falciparum, K1, 72 h, read-out: IC50 for P. falciparum K1; for Resistance index: ratio of the IC50 for K1 and the IC50 for NF54
From the text: (§1) The ratio of the growth inhibition of a strain which is especially resistant to chloroquine and of a strain which is sensitive to chloroquine gives as the "resistance index" a measurement for the absence of a cross-resistance with chloroquine. Since, for all novel compounds the resistance index lies between 0.7 and 2.5, they inhibit the growth of sensitive as well as resistant strains of the malaria pathogen equally effectively. They are accordingly also suitable for the prophylaxis of a malaria disease and also for the treatment of a malaria disease even when chloroquine is ineffective. The good activity against malaria pathogens is also shown in animal experiments. The effective doses measured after oral and subcutaneous administration to mice infected with malaria pathogens are shown in Table 2 hereinafter.
(§2) Test method for the determination of the activity against Plasmodium falciparum in vitro
(§3) The preparations are tested on intraerythrocytary stages of Plasmodium falciparum from asynchronous cultures according to the method of Desjardin et al. (Desjardins, R. E. et al: Quantitative assessment of antimalarial activity in vitro by a semiautomated microdilution technique. Antimicrob. Agents Chemother. 16, 710-718, (1979)).
(§4) The culture medium consists of RPMI 1640 with the addition of 25 mM HEPES, 25 mM NaHCO3, 100 μg/ml neomycin and […] (A^+). Human-A^+ erythrocytes are used as the Plasmodium falciparum host cells. The parasites are maintained at 37° C. in an atmosphere of 3% O2, 4% CO2, 93% N2 and 95% relative humidity.
(§5) In order to determine the activity, the preparations are dissolved in DMSO, pre-diluted in the culture medium to a suitable starting concentration and subsequently titrated-out on to microtitre plates in the 2nd stage over 6-7 steps. After the addition of the parasite culture (0.7% parasitemia in 2.5% erythrocyte suspension) the test plates are incubated under the conditions given above for 72 h. The parasite growth in the different preparation concentrations is determined using [G-^3 H]-hypoxanthin incorporation compared to untreated control cultures on the same test plates. The 50% growth inhibition (IC50) is calculated according to logit regression analysis from the resulting dosage-activity curve.
(§6) The preparations are tested on at least one chloroquine-resistant and one chloroquine-sensitive Plasmodium falciparum strain. Additional sensitive and resistant strains are included for further characterization.

[1] = test system: Plasmodium falciparum strain NF54; test: Growth inhibition of Plasmodium falciparum NF54 (chloroquine-sensitive) in vitro, [G-3H]-hypoxanthin incorporation; assay type: cell-based; settings: read-out: IC50 for P. falciparum NF54
From the text: as §1, §2, §3, §4, §5, §6

Plasmodium berghei = test: animal or person; assay type: in vivo, Plasmodium berghei (strain ANKA) in mice; settings: Plasmodium berghei
Experimental: Test method for the determination of the activity against Plasmodium berghei in vivo
The preparations are tested on mice infected with malaria pathogens (Plasmodium berghei). Male albino mice (IBM:MORO(SPF), FUELLINSDORF) weighing about 25 g are used as the test animals. They are kept in climatized rooms at 21-22° C. in groups of 5 animals per cage. They receive ad libitum a diet feed with a low PABA content (NAFAG FUTTER " No. 9009 PAB-45, PABA content 45 mg/kg) and drinking water. On the first day of the test (D0) the test animals are infected with Plasmodium berghei (strain ANKA). For this there is used heparinized blood of a donor mouse with about 30% parasitemia, which is diluted with physiological saline such that it contains 10^8 parasitized erythrocytes per ml. 0.2 ml of this suspension is injected intravenously (i.v.) into the mice to be treated and into the control mice.
The substances to be tested are dissolved or suspended in distilled water or in a mixture of 7% Tween 80, 3% alcohol (96%) and water. Usually, 0.25 ml of this solution or suspension is administered once subcutaneously and perorally to groups of 5 test animals. Treatment is effected 24 hours after the infection. 10 control animals are treated in the same manner with solvent or suspension medium per test.
All substances are tested in a first test in a single dosage of 10 mg/kg. Only those substances which in this test (10 mg/kg) have shown a parasitaemia reduction of 90% are used for the titration. Suitable dilutions of the test substance can be used to obtain an accurate titration of the activity.
48 hours after the treatment (D+3) blood smears are prepared from all animals using blood from tail veins and are stained with giemsa. […] The difference in the average values of the infection rates of control group (100%) and treated groups is calculated and expressed as a percentage reduction (GI%). The ED50 or ED90 is determined mathematically by means of the JMP programme (nonlinear fit). The ED50 (ED90) in mg/kg is that dose which after single administration reduces the average erythrocyte infection rate by 50% (90%) in comparison to the control group.

[2] = chloroquine-sensitive strain NF54, 72 h
[3] = po, single peroral dose of 10 mg/kg, mice, blood smears 48 h after treatment, read-out: Growth inhibition in % after po administration (GI%, percentage reduction of the parasitemia)
[4] = sc, single subcutaneous dose of 10 mg/kg, mice, blood smears 48 h after treatment, read-out: Growth inhibition in % after sc administration (GI%, percentage reduction of the parasitemia)

SMILES	IC50 (Plasmodium falciparum K1) [µg/mL]	Resistance index (Plasmodium falciparum K1)	IC50 ([1]; NF54, 72 h) [µg/mL]	inhibition in vivo at 10 mg/kg (Plasmodium berghei; in Mus musculus, po, 48 h, read-out: Growth inhibition in % after po administration (GI%, percentage reduction of the parasitemia)) [%]	inhibition in vivo at 10 mg/kg (Plasmodium berghei; in Mus musculus, sc, 48 h, read-out: Growth inhibition in % after sc administration (GI%, percentage reduction of the parasitemia)) [%]	IC50 [1, 2] [µg/mL]	inhibition in vivo at 10 mg/kg (Plasmodium berghei; [3]) [%]	inhibition in vivo at 10 mg/kg (Plasmodium berghei; [4]) [%]
CCN(CC)CCCC(C)Nc1ccnc2cc(Cl)ccc12 (stereo not drawn) [Chloroquine diphosphate, reference compound]	0.095	14.2	0.0067	99.9	99.9	–	–	–
CC(C)(CNc1ccnc2cc(Cl)ccc12)NCc1ccc(Cl)c(Cl)c1 [Example 3, N1-(7-Chloro-quinolin-4-yl)-N2-(3,4-dichloro-benzyl)-2-methyl-propane-1,2-diamine]	0.0183 (≈ 0.0448 µM)	1.3	–	–	–	0.0137 (≈ 0.0335 µM)	96	8
CC(C)(CNc1ccnc2cc(Cl)ccc12)NCc1cccc(Cl)c1 [Example 4, N1-(7-Chloro-quinolin-4-yl)-N2-(3-chloro-benzyl)-2-methyl-propane-1,2-diamine]	0.0088 (≈ 0.0235 µM)	1.0	–	–	–	0.0091 (≈ 0.0243 µM)	68	73
CC(C)(CNc1ccnc2cc(Cl)ccc12)NCc1ccc(Cl)cc1Cl [Example 5, N1-(7-Chloro-quinolin-4-yl)-N2-(2,4-dichloro-benzyl)-2-methyl-propane-1,2-diamine]	0.0572 (≈ 0.14 µM)	1.2	–	–	–	0.0493 (≈ 0.121 µM)	83	69
CC(C)(CNc1ccnc2cc(Cl)ccc12)NCc1ccc(F)c(Cl)c1 [Example 6, N1-(7-Chloro-quinolin-4-yl)-N2-(3-chloro-4-fluoro-benzyl)-2-methyl-propane-1,2-diamine]	0.0145 (≈ 0.037 µM)	1.4	–	–	–	0.0103 (≈ 0.0263 µM)	99.7	95
CC(C)(CNc1ccnc2cc(Cl)ccc12)NCc1ccc(Cl)c(C(F)(F)F)c1 [Example 7, N1-(7-Chloro-quinolin-4-yl)-N2-(4-chloro-3-trifluoromethyl-benzyl)-2-methyl-propane-1,2-diamine]	0.0349 (≈ 0.0789 µM)	1.5	–	–	–	0.024 (≈ 0.0543 µM)	96	54
CC(C)(CNc1ccnc2cc(Cl)ccc12)NCc1cccc(C(F)(F)F)c1 [Example 8, N1-(7-Chloro-quinolin-4-yl)-N2-(3-trifluoromethyl-benzyl)-2-methyl-propane-1,2-diamine]	0.0189 (≈ 0.0463 µM)	1.2	–	–	–	0.0161 (≈ 0.0395 µM)	99	95
CC(C)(CNc1ccnc2cc(Cl)ccc12)NCc1ccc(C(F)(F)F)cc1 [Example 9, N1-(7-Chloro-quinolin-4-yl)-N2-(4-trifluoromethyl-benzyl)-2-methyl-propane-1,2-diamine]	0.0167 (≈ 0.0409 µM)	1.3	–	–	–	0.0132 (≈ 0.0324 µM)	66	74
CC(C)(CNc1ccnc2cc(Cl)ccc12)NCc1cc(C(F)(F)F)cc(C(F)(F)F)c1 [Example 10, N1-(7-Chloro-quinolin-4-yl)-N2-(3,5-bis-trifluoromethyl-benzyl)-2-methyl-propane-1,2-diamine]	0.0504 (≈ 0.106 µM)	1.0	–	–	–	0.0517 (≈ 0.109 µM)	99.2	99.3
CC(C)(CNc1ccnc2cc(Cl)ccc12)NCc1ccncc1 [Example 11, N1-(7-Chloro-quinolin-4-yl)-N2-(pyridin-4-yl-methyl)-2-methyl-propane-1,2-diamine]	0.048 (≈ 0.141 µM)	1.6	–	–	–	0.0293 (≈ 0.086 µM)	99.9	99.8
CC(C)(CNc1ccnc2cc(Cl)ccc12)NCc1c(Cl)cccc1Cl [Example 12, N1-(7-Chloro-quinolin-4-yl)-N2-(2,6-dichloro-benzyl)-2-methyl-propane-1,2-diamine]	0.197 (≈ 0.482 µM)	2.3	–	–	–	0.0847 (≈ 0.207 µM)	98	4
Cl.Cl.Clc1ccc2c(N[C@H]3CC[C@@H](NCCc4ccccc4)CC3)ccnc2c1 [Example 13, cis-N1-(7-Chloro-quinolin-4-yl)-N4-phenethyl-cyclohexane-1,4-diamine dihydrochloride]	0.0161	6.0	–	–	–	0.0027	99.9	99.9
COc1cc(OC)c(CN[C@H]2CC[C@@H](Nc3ccnc4cc(Cl)ccc34)CC2)c(OC)c1.Cl.Cl [Example 14, cis-N1-(7-Chloro-quinolin-4-yl)-N4-(2,4,6-trimethoxy-benzyl)-cyclohexane-1,4-diamine dihydrochloride]	0.0284	5.9	–	–	–	0.0048	100	100
Cl.Cl.Clc1ccc2c(N[C@H]3CC[C@@H](NCc4c(Cl)cccc4Cl)CC3)ccnc2c1 [Example 15, cis-N1-(7-Chloro-quinolin-4-yl)-N4-(2,6-dichloro-benzyl)-cyclohexane-1,4-diamine dihydrochloride]	0.0147	3.4	–	–	–	0.0043	–	92
COc1cccc(OC)c1CN[C@H]1CC[C@@H](Nc2ccnc3cc(Cl)ccc23)CC1.Cl.Cl [Example 16, cis-N1-(7-Chloro-quinolin-4-yl)-N4-(2,6-dimethoxy-benzyl)-cyclohexane-1,4-diamine dihydrochloride]	0.017	8.5	–	–	–	0.002	99.8	99.9
Cl.Cl.Clc1ccc2c(N[C@H]3CC[C@@H](NCc4c(Cl)ccc(Cl)c4Cl)CC3)ccnc2c1 [Example 17, cis-N1-(7-Chloro-quinolin-4-yl)-N4-(2,3,6-trichloro-benzyl)-cyclohexane-1,4-diamine dihydrochloride]	0.0174	2.8	–	–	–	0.0064	32	87
COc1cc(O)c(CN[C@H]2CC[C@@H](Nc3ccnc4cc(Cl)ccc34)CC2)c(OC)c1.Cl.Cl [Example 18, cis-2-{[4-(7-Chloro-quinolin-4-ylamino)-cyclohexylamino]-methyl}-3,5-dimethoxy-phenol dihydrochloride]	0.021	3.8	–	–	–	0.0055	100	100

Source: patent US5948791A, “Quinoline derivatives for treating malaria” (Hoffmann-La Roche Inc., priority 1995, dated 1999)
